Active and inactive are the calls of the source. The calls are words filed in the database; no cut-off is given here.
Experiments:
HEK293 = assay: Effect on VANGL2 phosphorylation in human HEK293 cells at 1 uM measured after 6 hrs by Western blot analysis; format: functional, cell-based
[1] = target: T1, von Hippel-Lindau disease tumor suppressor/Casein kinase I isoform delta (Homo sapiens, UniProt P48730+P40337); assay: PROTAC activity at VHL/CK1 delta in human HEK293 cells at 0.625 to 10 uM in presence of MU1742 by Western blot analysis; format: cell-based; details: dose 0.625-10 µM
[2] = target: T1, von Hippel-Lindau disease tumor suppressor/Casein kinase I isoform delta; assay: PROTAC activity at VHL/HiBit fused CK1 delta in human MV4-11 cells assessed as fold change at 2.5 uM measured after 6 hrs in presence of MLN4924 by Nano-Glo HiBit assay; format: cell-based
[3] = target: T1, von Hippel-Lindau disease tumor suppressor/Casein kinase I isoform delta; assay: PROTAC activity at VHL/HiBit fused CK1 delta in human MV4-11 cells assessed as fold change at 2.5 uM measured after 6 hrs by Nano-Glo HiBit assay; format: cell-based
[4] = target: von Hippel-Lindau disease tumor suppressor/Casein kinase I isoform epsilon (Homo sapiens) (UniProt P49674+P40337); assay: PROTAC activity at VHL/CK1 epsilon in HEK293 cells assessed as induction of degradation of CK1 epsilon at upto 20 uM pretreated with LGK974 followed by compound addition and measured after 6 hrs by Western blot analysis; format: cell-based
Chain of von Hippel-Lindau disease tumor suppressor/Casein kinase I isoform epsilon (Homo sapiens) (P40337 whole entry, looked up, canonical isoform): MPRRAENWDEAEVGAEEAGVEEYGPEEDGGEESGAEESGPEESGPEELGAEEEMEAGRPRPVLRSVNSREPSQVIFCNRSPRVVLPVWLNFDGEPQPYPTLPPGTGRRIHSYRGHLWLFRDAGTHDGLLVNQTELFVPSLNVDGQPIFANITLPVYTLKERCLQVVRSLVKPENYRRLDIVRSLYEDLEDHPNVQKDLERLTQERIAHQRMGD
Chain of von Hippel-Lindau disease tumor suppressor/Casein kinase I isoform epsilon (Homo sapiens) (P49674 whole entry, looked up, canonical isoform): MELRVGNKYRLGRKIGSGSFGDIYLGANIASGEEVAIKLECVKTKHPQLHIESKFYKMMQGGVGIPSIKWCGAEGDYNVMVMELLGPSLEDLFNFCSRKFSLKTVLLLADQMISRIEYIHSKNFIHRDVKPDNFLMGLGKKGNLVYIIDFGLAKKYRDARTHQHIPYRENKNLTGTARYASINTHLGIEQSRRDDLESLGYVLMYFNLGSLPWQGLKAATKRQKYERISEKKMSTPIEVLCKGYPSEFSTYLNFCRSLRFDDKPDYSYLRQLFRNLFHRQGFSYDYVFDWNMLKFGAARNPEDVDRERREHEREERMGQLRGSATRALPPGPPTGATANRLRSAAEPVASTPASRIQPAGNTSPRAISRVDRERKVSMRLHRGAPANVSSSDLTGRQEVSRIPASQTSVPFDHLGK

T1 sequence (P40337 whole entry, looked up, the tested form may be a part, canonical isoform): as the sequence (P40337 whole entry, looked up, canonical isoform) above
T1 sequence (P48730 whole entry, looked up, the tested form may be a part, canonical isoform): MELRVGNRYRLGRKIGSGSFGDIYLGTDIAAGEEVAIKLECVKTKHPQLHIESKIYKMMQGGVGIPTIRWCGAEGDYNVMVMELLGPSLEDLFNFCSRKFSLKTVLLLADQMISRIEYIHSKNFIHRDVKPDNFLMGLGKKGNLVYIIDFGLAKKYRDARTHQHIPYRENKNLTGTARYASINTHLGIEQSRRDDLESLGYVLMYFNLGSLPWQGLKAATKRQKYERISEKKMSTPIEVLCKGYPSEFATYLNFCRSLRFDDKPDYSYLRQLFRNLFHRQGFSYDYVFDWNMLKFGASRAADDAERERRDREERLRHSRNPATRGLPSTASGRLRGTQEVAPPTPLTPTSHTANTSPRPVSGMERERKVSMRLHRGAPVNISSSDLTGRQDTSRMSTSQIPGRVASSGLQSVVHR

Cc1ncsc1-c1ccc(CNC(=O)[C@H]2C[C@H](O)CN2C(=O)[C@H](NC(=O)CCCCCCC(=O)N2CCC(F)(Cn3cnc(-c4ccc(F)cn4)c3-c3ccnc4[nH]ccc34)CC2)C(C)(C)C)cc1
Activity (HEK293): Active
Activity [1]: inactive
fold change (FC) [2]: 0.85
fold change (FC) [3]: 0.33
Activity [4]: Active

From ChEMBL document CHEMBL6087472, “Development and Discovery of a Selective Degrader of Casein Kinases 1 δ/ε” (J Med Chem, 2025)
